We go through two compounds from patent US20250345436A1 (Hyloris Developments SA, priority 2023, published 2025).

One data set in a line: physchem. Type of data set: physicochemical. The text has this:
Atomoxetine HCl (API, active pharmaceutical ingredient) has good aqueous solubility. […] Human saliva has a pH normal range of 6.2-7.6 with 6.7 being the average pH. […] In the oral cavity, the pH is maintained near neutrality (6.7-7.3) by the saliva.
It is also evident that the solubilized form of atomoxetine is going to have a direct impact on taste buds thereby causing immediate bitterness upon drinking the oral solution.

The conditions of data set [1]: cited from earlier work.

Broadly, the solubility is the concentration that dissolves in the medium under given conditions.

Turning to `CNCC[C@@H](Oc1ccccc1C)c1ccccc1.Cl` [Atomoxetine HCl, (-)-N-Methyl-3-phenyl-3-(o-tolyloxy)-propylamine hydrochloride], the solubility was 12.2 mg/mL in “physchem” (aqueous buffer, Absolute Solubility); 33.9 mg/mL in “physchem” (pH 4.5, aqueous buffer, Absolute Solubility); 3.53 mg/mL in the data set “physchem” (pH 6.8, aqueous buffer, Absolute Solubility); 2.7 to 3.5 mg/mL in the data set “physchem” (pH 6.8, aqueous buffer, solubility); 2.75 mg/mL in the data set “physchem” (pH 7.4, aqueous buffer, Absolute Solubility); 13.1 mg/mL in “physchem” (simulated gastric fluid, Absolute Solubility). The compound further returned a solubility in the data set “physchem” (water, Absolute Solubility) of 24.1 mg/mL.

Consider “D-α-Tocopherol Polyethylene Glycol Succinate [Vitamin E TPGS]”, for which the “size of self-assembled nanosized aggregates” value in data set [1] (in water above CMC) is recorded as “about 13 nm”. Besides, in data set [1] (in water), the “critical micellar concentration (CMC)” value was 0.02 wt %.
